Experimental data: ChEMBL document CHEMBL4507259 (2021)

Legend:
[1] = biological target: Homeodomain-interacting protein kinase 3 (Homo sapiens) (UniProt Q9H422); conditions: Compound concentration 1000.0 nM
[2] = test system: Tyrosine-protein kinase ABL1 (Homo sapiens), P00519 [T315I]; conditions: Compound concentration 1000.0 nM
[3] = biological target: Serine/threonine-protein kinase TAO2 (Homo sapiens) (UniProt Q9UL54); conditions: Compound concentration 1000.0 nM
[4] = biological target: Serine/threonine-protein kinase D2 (Homo sapiens) (UniProt Q9BZL6); conditions: Compound concentration 1000.0 nM
[5] = test system: Proto-oncogene tyrosine-protein kinase receptor Ret (Homo sapiens), P07949 [V804L]; conditions: Compound concentration 1000.0 nM
[6] = biological target: Ephrin type-B receptor 6 (Homo sapiens) (UniProt O15197); conditions: Compound concentration 1000.0 nM
[7] = biological target: Aurora kinase B (Homo sapiens) (UniProt Q96GD4); conditions: Compound concentration 1000.0 nM
[8] = biological target: 3-phosphoinositide-dependent protein kinase 1 (Homo sapiens) (UniProt O15530); conditions: Compound concentration 1000.0 nM
[9] = species: Rattus norvegicus; conditions: Compound concentration 10.0 uM
[10] = biological target: Tumor necrosis factor (Homo sapiens) (UniProt P01375); experiment: TNF-alpha (h) CEREP ligand profiling; conditions: filed as agonist, Compound concentration 10.0 uM
[11] = biological target: Sigma intracellular receptor 2 (Homo sapiens, UniProt Q5BJF2); conditions: Compound concentration 10.0 uM
[12] = biological target: Mitogen-activated protein kinase kinase kinase kinase 5 (Homo sapiens) (UniProt Q9Y4K4); conditions: Compound concentration 1000.0 nM
[13] = biological target: GABA-A receptor; anion channel (Rattus norvegicus) (UniProt O09028+P15431+P18506+P18508+P19969+P20236+P23574+P23576+P28471+P28473+P30191+P62813+P63079+P63138+Q91ZM7+Q9ES14); conditions: Compound concentration 10.0 uM
[14] = biological target: Myosin light chain kinase, smooth muscle (Homo sapiens) (UniProt Q15746); conditions: Compound concentration 1000.0 nM
[15] = biological target: Sodium-dependent dopamine transporter (Homo sapiens, UniProt Q01959); conditions: Compound concentration 10.0 uM
[16] = biological target: T1, Muscarinic acetylcholine receptor M2 (Homo sapiens) (UniProt P08172); experiment: M2 (h) CEREP ligand profiling; conditions: filed as antagonist, Compound concentration 10.0 uM
T1 sequence (whole entry): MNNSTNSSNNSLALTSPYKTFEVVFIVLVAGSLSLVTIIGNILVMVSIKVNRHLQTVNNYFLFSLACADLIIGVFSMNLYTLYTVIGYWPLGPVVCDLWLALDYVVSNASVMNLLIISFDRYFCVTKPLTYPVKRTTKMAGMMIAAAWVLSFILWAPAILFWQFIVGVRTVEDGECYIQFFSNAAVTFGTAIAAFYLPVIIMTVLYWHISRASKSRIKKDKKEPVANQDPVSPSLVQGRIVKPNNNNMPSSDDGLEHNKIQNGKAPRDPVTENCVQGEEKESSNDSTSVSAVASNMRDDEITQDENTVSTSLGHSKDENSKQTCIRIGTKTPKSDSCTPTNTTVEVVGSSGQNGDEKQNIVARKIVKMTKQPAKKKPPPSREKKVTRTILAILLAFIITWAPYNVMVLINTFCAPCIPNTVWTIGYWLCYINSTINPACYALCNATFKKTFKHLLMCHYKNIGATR

[17] = biological target: Dual specificity protein kinase CLK4 (Homo sapiens) (UniProt Q9HAZ1); conditions: Compound concentration 1000.0 nM
[18] = biological target: Dual specificity protein kinase TTK (Homo sapiens) (UniProt P33981); conditions: Compound concentration 1000.0 nM
[19] = biological target: Tyrosine-protein kinase Fer (Homo sapiens) (UniProt P16591); conditions: Compound concentration 1000.0 nM
[20] = biological target: Uncharacterized serine/threonine-protein kinase SBK3 (Homo sapiens) (UniProt P0C264); conditions: Compound concentration 1000.0 nM
[21] = biological target: Mitogen-activated protein kinase kinase kinase 6 (Homo sapiens) (UniProt O95382); conditions: Compound concentration 1000.0 nM
[22] = biological target: Sodium-dependent serotonin transporter (Homo sapiens, UniProt P31645); experiment: 5-HT transporter (h) CEREP ligand profiling; conditions: filed as antagonist, Compound concentration 10.0 uM
[23] = biological target: Serine/threonine-protein kinase TAO1 (Homo sapiens) (UniProt Q7L7X3); conditions: Compound concentration 1000.0 nM
[24] = biological target: Casein kinase I isoform epsilon (Homo sapiens) (UniProt P49674); conditions: Compound concentration 1000.0 nM
[25] = biological target: Ephrin type-B receptor 1 (Homo sapiens) (UniProt P54762); conditions: Compound concentration 1000.0 nM
[26] = biological target: Serine/threonine-protein kinase TBK1 (Homo sapiens) (UniProt Q9UHD2); conditions: Compound concentration 1000.0 nM
[27] = biological target: Hepatocyte growth factor receptor (Homo sapiens) (UniProt P08581); conditions: Compound concentration 1000.0 nM
[28] = biological target: Serine/threonine-protein kinase PAK 1 (Homo sapiens) (UniProt Q13153); conditions: Compound concentration 1000.0 nM
[29] = biological target: Mitogen-activated protein kinase 10 (Homo sapiens) (UniProt P53779); conditions: Compound concentration 1000.0 nM
[30] = biological target: Serine/threonine-protein kinase Sgk2 (Homo sapiens) (UniProt Q9HBY8); conditions: Compound concentration 1000.0 nM
[31] = biological target: Calcium/calmodulin-dependent protein kinase type II subunit gamma (Homo sapiens) (UniProt Q13555); conditions: Compound concentration 1000.0 nM
[32] = biological target: High affinity nerve growth factor receptor (Homo sapiens) (UniProt P04629); conditions: Compound concentration 1000.0 nM
[33] = biological target: Insulin receptor-related protein (Homo sapiens) (UniProt P14616); conditions: Compound concentration 1000.0 nM
[34] = biological target: Glutamate [NMDA] receptor (Homo sapiens) (UniProt Q05586+Q12879+Q13224+O15399+O60391+Q14957+Q8TCU5); experiment: NMDA CEREP ligand profiling; assay type: protein-complex assay
[35] = test system: Fibroblast growth factor receptor 3 (Homo sapiens), P22607 [G697C]; conditions: Compound concentration 1000.0 nM
[36] = biological target: MAP kinase-interacting serine/threonine-protein kinase 2 (Homo sapiens) (UniProt Q9HBH9); conditions: Compound concentration 1000.0 nM
[37] = biological target: Mitogen-activated protein kinase kinase kinase 7 (Homo sapiens) (UniProt O43318); conditions: Compound concentration 1000.0 nM

Sequence of High affinity nerve growth factor receptor (Homo sapiens) (P04629 33-796 limits assumed): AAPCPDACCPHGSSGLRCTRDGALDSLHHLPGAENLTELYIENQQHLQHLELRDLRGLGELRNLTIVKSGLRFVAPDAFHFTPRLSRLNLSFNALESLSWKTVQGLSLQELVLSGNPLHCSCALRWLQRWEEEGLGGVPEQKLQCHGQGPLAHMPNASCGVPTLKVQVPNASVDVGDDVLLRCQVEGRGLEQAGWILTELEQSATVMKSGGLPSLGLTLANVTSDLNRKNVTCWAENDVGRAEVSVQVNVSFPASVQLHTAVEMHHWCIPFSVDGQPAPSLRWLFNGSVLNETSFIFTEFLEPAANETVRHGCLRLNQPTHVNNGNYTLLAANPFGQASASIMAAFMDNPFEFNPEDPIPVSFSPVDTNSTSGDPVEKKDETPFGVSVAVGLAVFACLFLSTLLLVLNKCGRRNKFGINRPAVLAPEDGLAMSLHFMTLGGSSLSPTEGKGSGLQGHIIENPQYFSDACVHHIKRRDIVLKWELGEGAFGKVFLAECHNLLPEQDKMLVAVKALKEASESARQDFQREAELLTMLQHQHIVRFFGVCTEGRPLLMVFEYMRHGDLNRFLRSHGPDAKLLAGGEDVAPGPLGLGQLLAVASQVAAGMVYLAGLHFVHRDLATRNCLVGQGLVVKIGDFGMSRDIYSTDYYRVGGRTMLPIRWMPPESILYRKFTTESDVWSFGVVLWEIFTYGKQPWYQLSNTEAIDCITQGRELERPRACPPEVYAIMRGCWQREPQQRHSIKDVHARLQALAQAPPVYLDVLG
Sequence of Tyrosine-protein kinase Fer (Homo sapiens) (P16591 whole entry, looked up): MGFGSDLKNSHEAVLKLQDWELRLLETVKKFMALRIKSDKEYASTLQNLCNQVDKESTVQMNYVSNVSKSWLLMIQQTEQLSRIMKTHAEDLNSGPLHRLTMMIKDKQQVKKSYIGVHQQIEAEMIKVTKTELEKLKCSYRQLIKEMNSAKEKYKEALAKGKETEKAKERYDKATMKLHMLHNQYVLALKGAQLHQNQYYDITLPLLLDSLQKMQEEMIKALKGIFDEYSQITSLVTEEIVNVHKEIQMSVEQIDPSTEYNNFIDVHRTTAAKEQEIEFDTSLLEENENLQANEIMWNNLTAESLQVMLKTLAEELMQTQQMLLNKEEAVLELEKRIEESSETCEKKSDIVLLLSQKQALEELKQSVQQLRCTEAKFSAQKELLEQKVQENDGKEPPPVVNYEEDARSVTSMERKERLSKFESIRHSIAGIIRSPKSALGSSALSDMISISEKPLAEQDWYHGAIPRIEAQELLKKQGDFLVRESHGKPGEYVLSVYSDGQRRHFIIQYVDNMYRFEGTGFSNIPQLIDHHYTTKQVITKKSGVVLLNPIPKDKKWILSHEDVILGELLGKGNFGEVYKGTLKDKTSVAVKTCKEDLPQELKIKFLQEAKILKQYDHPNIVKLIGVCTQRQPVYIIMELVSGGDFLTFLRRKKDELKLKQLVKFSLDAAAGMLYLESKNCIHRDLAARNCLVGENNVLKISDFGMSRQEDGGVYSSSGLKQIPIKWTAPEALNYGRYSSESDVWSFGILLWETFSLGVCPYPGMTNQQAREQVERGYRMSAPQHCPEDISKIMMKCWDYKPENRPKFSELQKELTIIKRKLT
Sequence of Dual specificity protein kinase CLK4 (Homo sapiens) (Q9HAZ1 whole entry, looked up): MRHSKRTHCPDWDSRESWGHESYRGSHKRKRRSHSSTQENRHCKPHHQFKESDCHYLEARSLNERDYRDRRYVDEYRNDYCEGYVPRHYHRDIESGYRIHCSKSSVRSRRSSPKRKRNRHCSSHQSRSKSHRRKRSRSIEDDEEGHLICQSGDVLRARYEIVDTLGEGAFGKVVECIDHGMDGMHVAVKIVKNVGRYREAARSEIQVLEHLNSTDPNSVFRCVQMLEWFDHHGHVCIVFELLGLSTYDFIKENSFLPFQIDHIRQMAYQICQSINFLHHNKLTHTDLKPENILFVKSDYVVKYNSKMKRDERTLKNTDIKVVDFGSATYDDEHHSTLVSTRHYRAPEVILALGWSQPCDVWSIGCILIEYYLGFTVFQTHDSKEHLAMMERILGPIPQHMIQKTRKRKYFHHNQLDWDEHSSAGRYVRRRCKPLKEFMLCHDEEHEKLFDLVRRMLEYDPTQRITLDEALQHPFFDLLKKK
Sequence of MAP kinase-interacting serine/threonine-protein kinase 2 (Homo sapiens) (Q9HBH9 whole entry, looked up): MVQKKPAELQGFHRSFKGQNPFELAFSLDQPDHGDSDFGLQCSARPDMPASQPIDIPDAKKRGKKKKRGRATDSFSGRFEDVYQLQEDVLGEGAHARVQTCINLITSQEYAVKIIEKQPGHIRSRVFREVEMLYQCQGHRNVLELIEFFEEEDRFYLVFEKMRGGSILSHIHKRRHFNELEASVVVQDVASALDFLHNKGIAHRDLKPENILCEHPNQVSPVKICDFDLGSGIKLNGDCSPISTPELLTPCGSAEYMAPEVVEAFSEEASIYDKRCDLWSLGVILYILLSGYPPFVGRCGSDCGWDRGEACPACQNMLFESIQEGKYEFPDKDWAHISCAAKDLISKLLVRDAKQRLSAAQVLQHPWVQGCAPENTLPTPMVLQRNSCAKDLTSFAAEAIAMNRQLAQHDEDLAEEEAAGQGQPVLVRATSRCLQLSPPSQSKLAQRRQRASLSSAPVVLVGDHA
Sequence of Sodium-dependent dopamine transporter (Q01959 whole entry): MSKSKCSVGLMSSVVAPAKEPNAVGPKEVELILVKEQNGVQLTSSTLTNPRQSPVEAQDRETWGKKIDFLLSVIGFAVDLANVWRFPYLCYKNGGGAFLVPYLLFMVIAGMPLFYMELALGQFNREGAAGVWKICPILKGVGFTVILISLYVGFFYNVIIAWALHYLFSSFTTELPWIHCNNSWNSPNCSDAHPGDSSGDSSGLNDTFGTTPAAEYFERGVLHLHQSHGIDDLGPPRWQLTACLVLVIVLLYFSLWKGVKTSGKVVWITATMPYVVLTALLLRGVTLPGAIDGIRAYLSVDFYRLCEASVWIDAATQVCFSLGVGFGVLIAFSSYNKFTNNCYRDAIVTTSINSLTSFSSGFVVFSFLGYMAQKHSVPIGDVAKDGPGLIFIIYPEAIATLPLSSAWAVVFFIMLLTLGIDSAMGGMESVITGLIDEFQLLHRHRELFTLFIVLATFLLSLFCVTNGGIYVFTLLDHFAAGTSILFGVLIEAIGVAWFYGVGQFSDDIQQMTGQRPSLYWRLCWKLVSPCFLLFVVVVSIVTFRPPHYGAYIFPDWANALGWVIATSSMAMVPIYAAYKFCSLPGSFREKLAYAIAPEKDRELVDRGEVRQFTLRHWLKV
Sequence of Ephrin type-B receptor 6 (Homo sapiens) (O15197 whole entry): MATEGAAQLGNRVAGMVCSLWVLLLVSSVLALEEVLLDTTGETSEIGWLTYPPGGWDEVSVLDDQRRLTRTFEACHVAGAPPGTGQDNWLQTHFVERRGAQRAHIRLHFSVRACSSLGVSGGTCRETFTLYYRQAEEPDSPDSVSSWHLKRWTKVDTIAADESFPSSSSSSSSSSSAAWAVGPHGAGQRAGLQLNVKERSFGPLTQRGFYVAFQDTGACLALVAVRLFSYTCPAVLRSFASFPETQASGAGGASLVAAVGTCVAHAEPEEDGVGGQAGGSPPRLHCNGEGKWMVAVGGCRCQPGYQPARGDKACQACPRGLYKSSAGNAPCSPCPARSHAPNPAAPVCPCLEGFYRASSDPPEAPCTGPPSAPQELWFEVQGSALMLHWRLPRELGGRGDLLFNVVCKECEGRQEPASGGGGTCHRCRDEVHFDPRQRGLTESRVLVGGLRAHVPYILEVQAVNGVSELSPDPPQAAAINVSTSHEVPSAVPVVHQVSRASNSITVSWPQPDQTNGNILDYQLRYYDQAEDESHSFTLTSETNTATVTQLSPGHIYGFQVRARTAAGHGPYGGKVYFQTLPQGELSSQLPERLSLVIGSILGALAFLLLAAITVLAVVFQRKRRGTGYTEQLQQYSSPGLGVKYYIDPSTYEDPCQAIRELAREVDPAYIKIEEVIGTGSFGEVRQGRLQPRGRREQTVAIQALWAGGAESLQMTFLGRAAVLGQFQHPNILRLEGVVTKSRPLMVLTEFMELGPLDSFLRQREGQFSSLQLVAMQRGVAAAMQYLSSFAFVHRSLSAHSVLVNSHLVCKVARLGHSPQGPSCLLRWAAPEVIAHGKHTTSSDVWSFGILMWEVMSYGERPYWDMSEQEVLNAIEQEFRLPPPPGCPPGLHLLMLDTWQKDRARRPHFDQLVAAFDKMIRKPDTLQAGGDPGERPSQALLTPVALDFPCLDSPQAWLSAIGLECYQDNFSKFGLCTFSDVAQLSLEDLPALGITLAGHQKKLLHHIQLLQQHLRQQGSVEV
Sequence of Uncharacterized serine/threonine-protein kinase SBK3 (Homo sapiens) (P0C264 whole entry): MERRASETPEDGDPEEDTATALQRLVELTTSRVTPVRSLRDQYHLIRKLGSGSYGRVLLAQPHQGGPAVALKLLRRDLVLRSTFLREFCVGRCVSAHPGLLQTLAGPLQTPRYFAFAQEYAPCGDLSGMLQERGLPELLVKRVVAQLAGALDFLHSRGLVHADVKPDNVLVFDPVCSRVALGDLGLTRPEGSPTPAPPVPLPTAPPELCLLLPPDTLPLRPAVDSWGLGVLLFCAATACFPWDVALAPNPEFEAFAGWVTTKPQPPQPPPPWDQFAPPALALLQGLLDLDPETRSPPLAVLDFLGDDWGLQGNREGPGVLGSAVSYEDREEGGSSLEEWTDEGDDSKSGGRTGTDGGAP
Sequence of Casein kinase I isoform epsilon (Homo sapiens) (P49674 whole entry, looked up, canonical isoform): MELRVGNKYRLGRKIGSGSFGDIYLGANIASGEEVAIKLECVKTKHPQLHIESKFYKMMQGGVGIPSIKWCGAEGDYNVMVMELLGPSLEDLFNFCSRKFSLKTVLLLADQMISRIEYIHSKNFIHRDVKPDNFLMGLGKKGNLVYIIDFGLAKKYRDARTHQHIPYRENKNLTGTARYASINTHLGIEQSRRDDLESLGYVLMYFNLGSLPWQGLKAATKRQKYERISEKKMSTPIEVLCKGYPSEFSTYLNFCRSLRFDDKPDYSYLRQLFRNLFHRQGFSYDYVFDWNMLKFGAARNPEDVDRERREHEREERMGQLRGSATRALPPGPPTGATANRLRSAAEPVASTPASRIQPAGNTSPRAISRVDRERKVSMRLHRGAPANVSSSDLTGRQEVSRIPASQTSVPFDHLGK

Row | SMILES | residual activity [1] | residual activity [2] | residual activity [3] | residual activity [4] | residual activity [5] | residual activity [6] | residual activity [7] | residual activity [8] | inhibition [9] | inhibition [10] | inhibition [11] | residual activity [12] | inhibition [13] | residual activity [14] | inhibition [15] | inhibition [16] | residual activity [17] | residual activity [18] | residual activity [19] | residual activity [20] | other results
1 | CNC(=O)Nc1ccc2c(c1)[C@@]1(CC2)OC(=O)N(CC(=O)N(Cc2ccc(F)cc2)[C@@H](C)C(F)(F)F)C1=O [A-486] | 90% | 87% | 95% | 100% | 94% | 0% | 93% | 85% | 50.6% | 1% | 55.5% | 100% | 9.54% | 88% | -6.45% | -8% | 78% | 100% | 79% | 100% | residual activity [21]: 82%; inhibition [22]: 40%; residual activity [23]: 97%; residual activity [24]: 80%; residual activity [25]: 100%; residual activity [26]: 84%; residual activity [27]: 100%; residual activity [28]: 98%; residual activity [29]: 67%; residual activity [30]: 88%; residual activity [31]: 98%; residual activity [32]: 41%; residual activity [33]: 100%; inhibition ([34]; filed as antagonist, Compound concentration 10.0 uM): 2%; residual activity [35]: 96%; residual activity [36]: 76%; residual activity [37]: 81%
2 | CNC(=O)Nc1ccc2c(c1)CC[C@@]21OC(=O)N(CC(=O)N(Cc2ccc(F)cc2)[C@@H](C)C(F)(F)F)C1=O [A-485] | 73% | 100% | 91% | 100% | 91% | 96% | 86% | 88% | 60% | 1% | 50% | 88% | 8.97% | 66% | 63.9% | -5% | 90% | 100% | 87% | 93% | residual activity [21]: 86%; inhibition [22]: 99%; residual activity [23]: 94%; residual activity [24]: 80%; residual activity [25]: 97%; residual activity [26]: 83%; residual activity [27]: 88%; residual activity [28]: 88%; residual activity [29]: 73%; residual activity [30]: 100%; residual activity [31]: 76%; residual activity [32]: 81%; residual activity [33]: 96%; inhibition ([34]; filed as antagonist; Compound concentration 10.0 uM): 4%; residual activity [35]: 79%; residual activity [36]: 82%; residual activity [37]: 77%
